Source: patent publication US10894788B2, “Inhibitors of cyclin-dependent kinases” (Kinnate Biopharma Inc., priority 2018, dated 2021)

The molecules below were run against CDK12 wt/CycK (Homo sapiens (Human), UniProt Q9NYV4) (assay: Radiometric protein kinase assay (33PanQinase Activity Assay), Assay Condition A (thiol containing conditions)). Settings: not given.
Assay type: biochemical
Procedure, shortened: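 Recombinant human kinase incubated with [33P]ATP, substrate and compound (10 concentrations, 1×10^−04M to 3×10^−09M, singlicate, 1% DMSO) under thiol-containing buffer conditions, 60 min at 30 °C. 33Pi incorporation counted by scintillation; residual activity normalised to no-inhibitor and no-kinase controls, IC50 derived.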

CDK12 wt/CycK, sequence (Q9NYV4 whole entry): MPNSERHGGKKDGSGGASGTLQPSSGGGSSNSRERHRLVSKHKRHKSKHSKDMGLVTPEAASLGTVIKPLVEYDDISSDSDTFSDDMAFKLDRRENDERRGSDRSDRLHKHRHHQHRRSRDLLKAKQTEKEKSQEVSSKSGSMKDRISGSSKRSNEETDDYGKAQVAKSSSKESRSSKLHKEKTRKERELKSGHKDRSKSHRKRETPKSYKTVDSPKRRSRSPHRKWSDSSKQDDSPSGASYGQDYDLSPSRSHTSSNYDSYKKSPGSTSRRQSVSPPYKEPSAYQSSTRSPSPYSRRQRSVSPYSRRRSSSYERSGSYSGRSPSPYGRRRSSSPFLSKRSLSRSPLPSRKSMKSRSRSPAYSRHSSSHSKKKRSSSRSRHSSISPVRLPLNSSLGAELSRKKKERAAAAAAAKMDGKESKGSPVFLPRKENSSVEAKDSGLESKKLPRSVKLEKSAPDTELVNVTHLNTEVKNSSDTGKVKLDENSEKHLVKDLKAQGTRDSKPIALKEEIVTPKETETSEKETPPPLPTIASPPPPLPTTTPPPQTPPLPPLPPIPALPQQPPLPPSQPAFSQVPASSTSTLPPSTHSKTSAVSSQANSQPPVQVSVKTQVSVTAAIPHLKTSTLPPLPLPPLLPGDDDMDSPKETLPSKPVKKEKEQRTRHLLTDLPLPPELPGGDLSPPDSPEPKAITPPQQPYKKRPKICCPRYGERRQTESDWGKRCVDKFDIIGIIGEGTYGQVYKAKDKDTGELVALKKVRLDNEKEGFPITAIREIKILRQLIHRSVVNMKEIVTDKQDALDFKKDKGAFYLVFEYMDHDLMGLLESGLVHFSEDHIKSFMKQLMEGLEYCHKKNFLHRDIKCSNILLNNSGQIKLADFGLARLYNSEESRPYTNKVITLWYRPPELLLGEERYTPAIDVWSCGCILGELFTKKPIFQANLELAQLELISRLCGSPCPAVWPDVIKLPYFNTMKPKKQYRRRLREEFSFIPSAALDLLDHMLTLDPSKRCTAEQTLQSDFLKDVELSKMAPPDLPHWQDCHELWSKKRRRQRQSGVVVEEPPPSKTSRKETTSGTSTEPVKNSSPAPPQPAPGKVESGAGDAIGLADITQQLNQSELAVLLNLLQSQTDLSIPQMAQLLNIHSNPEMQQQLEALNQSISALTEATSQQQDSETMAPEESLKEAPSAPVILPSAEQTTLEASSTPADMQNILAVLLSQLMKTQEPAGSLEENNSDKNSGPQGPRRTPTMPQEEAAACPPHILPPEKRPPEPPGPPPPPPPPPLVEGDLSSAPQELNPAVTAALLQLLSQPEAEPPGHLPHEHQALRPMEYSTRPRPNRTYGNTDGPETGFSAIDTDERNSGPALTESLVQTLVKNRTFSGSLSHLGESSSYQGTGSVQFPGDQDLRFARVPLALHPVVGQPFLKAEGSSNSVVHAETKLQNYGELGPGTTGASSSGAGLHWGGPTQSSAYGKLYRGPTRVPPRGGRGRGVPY
CDK12 wt/CycK, sequence (O75909 whole entry partner): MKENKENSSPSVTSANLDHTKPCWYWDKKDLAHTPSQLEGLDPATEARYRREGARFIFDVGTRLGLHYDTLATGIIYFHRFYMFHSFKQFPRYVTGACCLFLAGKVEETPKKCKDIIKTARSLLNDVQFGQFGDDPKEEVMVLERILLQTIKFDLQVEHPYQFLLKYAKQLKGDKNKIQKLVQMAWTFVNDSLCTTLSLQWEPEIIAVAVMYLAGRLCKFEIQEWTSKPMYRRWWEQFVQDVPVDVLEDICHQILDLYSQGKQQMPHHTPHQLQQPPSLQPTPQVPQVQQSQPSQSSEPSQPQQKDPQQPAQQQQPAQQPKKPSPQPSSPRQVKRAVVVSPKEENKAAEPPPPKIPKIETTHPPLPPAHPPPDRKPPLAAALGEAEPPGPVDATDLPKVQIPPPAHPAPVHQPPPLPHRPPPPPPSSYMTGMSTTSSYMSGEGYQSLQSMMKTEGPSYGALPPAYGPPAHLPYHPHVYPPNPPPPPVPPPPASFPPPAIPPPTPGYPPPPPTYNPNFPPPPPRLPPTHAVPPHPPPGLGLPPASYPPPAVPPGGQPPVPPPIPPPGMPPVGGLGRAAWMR

| Compound | IC50 [nM] |
| --- | --- |
| C=CC(=O)Nc1ccc(C(=O)N2CC[C@@H](Nc3ncc(C#N)cn3)C2)cc1OCCN(C)C [Example 166, (R)—N-(4-(3-((5-cyanopyrimidin-2-yl)amino)pyrrolidine-1-carbonyl)-2-(2-(dimethylamino)ethoxy)phenyl)acrylamide] | 100 to 1000 |

Same assay, conditions: thiol containing conditions (1.2 mM DTT), ATP 0.3 μM; read-out: CDK12 IC50 Condition A

| IC50 [nM] | Compound |
| --- | --- |
| 100 to 1000 | COc1nc(N[C@@H]2CCN(C(=O)c3ccc(NC(=O)/C=C/CN4CC[C@@H](F)C4)cn3)C2)ncc1Cl [Example 170, (E)-N-(6-((R)-3-((5-chloro-4-methoxypyrimidin-2-yl)amino)pyrrolidine-1-carbonyl)pyridin-3-yl)-4-((R)-3-fluoropyrrolidin-1-yl)but-2-enamide] |
| 100 to 1000 | COc1nc(N[C@@H]2CCN(C(=O)c3ccc(NC(=O)/C=C/CN4CC[C@H](F)C4)cn3)C2)ncc1Cl [Example 171, (E)-N-(6-((R)-3-((5-chloro-4-methoxypyrimidin-2-yl)amino)pyrrolidine-1-carbonyl)pyridin-3-yl)-4-((S)-3-fluoropyrrolidin-1-yl)but-2-enamide] |
| 100 to 1000 | COc1nc(N[C@@H]2CCN(C(=O)c3ccc(NC(=O)/C=C/CN4CCCC(F)(F)C4)cc3)C2)ncc1Cl [Example 173, (R,E)-N-(4-(3-((5-chloro-4-methoxypyrimidin-2-yl)amino)pyrrolidine-1-carbonyl)phenyl)-4-(3,3-difluoropiperidin-1-yl)but-2-enamide] |
| 100 to 1000 | COc1nc(N[C@@H]2CCN(C(=O)c3ccc(NC(=O)/C=C/CN4CCC[C@H](F)C4)cn3)C2)ncc1Cl [Example 175, (E)-N-(6-((R)-3-((5-chloro-4-methoxypyrimidin-2-yl)amino)pyrrolidine-1-carbonyl)pyridin-3-yl)-4-((S)-3-fluoropiperidin-1-yl)but-2-enamide] |
| 100 to 1000 | COc1nc(N[C@@H]2CCN(C(=O)c3ccc(NC(=O)/C=C/CN4CCC[C@@H](F)C4)cn3)C2)ncc1Cl [Example 176, (E)-N-(6-((R)-3-((5-chloro-4-methoxypyrimidin-2-yl)amino)pyrrolidine-1-carbonyl)pyridin-3-yl)-4-((R)-3-fluoropiperidin-1-yl)but-2-enamide] |
| 100 to 1000 | COc1nc(N[C@@H]2CCN(C(=O)c3ccc(NC(=O)/C=C/CN4CCC[C@H](F)C4)cc3)C2)ncc1Cl [Example 177, (E)-N-(4-((R)-3-((5-chloro-4-methoxypyrimidin-2-yl)amino)pyrrolidine-1-carbonyl)phenyl)-4-((S)-3-fluoropiperidin-1-yl)but-2-enamide] |
| 100 to 1000 | COc1nc(N[C@@H]2CCN(C(=O)c3ccc(NC(=O)/C=C/CN4CCC[C@@H](F)C4)cc3)C2)ncc1Cl [Example 178, (E)-N-(4-((R)-3-((5-chloro-4-methoxypyrimidin-2-yl)amino)pyrrolidine-1-carbonyl)phenyl)-4-((R)-3-fluoropiperidin-1-yl)but-2-enamide] |
| 100 to 1000 | COc1nc(N[C@@H]2CCN(C(=O)c3ccc(NC(=O)/C=C/CN4CC[C@@H](F)C4)nc3)C2)ncc1Cl [Example 179, (E)-N-(5-((R)-3-((5-chloro-4-methoxypyrimidin-2-yl)amino)pyrrolidine-1-carbonyl)pyridin-2-yl)-4-((R)-3-fluoropyrrolidin-1-yl)but-2-enamide] |
| < 100 | C=CC(=O)Nc1ccc(C(=O)N2C[C@H](Nc3ncc(Cl)c(OC)n3)C[C@@H]2C)cc1 [Example 180, N-(4-((2S,4R)-4-((5-chloro-4-methoxypyrimidin-2-yl)amino)-2-methylpyrrolidine-1-carbonyl)phenyl)acrylamide] |
| < 100 | C#Cc1cnc(N[C@@H]2CCN(C(=O)c3ccc(NC(=O)C=C)cc3)C2)nc1 [Example 181, (R)—N-(4-(3-((5-ethynylpyrimidin-2-yl)amino)pyrrolidine-1-carbonyl)phenyl)acrylamide] |
| < 100 | C#Cc1cnc(N[C@@H]2CCN(C(=O)c3ccc(NC(=O)C=C)cc3)C2)nc1OC [Example 182, (R)—N-(4-(3-((5-ethynyl-4-methoxypyrimidin-2-yl)amino)pyrrolidine-1-carbonyl)phenyl)acrylamide] |
| < 100 | C=CC(=O)Nc1ccc(C(=O)N2C[C@H](Nc3ncc(Cl)c(OC)n3)C[C@H]2C)cc1 [Example 183, N-(4-((2R,4R)-4-((5-chloro-4-methoxypyrimidin-2-yl)amino)-2-methylpyrrolidine-1-carbonyl)phenyl)acrylamide] |
| < 100 | C=CC(=O)Nc1ccc(C(=O)N2CC[C@@H](Nc3ncc(C(F)(F)F)cn3)C2)cc1 [Example 184, (R)—N-(4-(3-((5-(trifluoromethyl)pyrimidin-2-yl)amino)pyrrolidine-1-carbonyl)phenyl)acrylamide] |

Continued, molecule first:

| Compound | IC50 [nM] |
| --- | --- |
| C=CC(=O)Nc1ccc(C(=O)N2CC[C@@H](Nc3ncc(Br)cn3)C2)cc1OCCN1CCC(F)(F)CC1 [Example 162, (R)—N-(4-(3-((5-bromopyrimidin-2-yl)amino)pyrrolidine-1-carbonyl)-2-(2-(4,4-difluoropiperidin-1-yl)ethoxy)phenyl)acrylamide] | 100 to 1000 |
| C=CC(=O)Nc1ccc(C(=O)N2CC[C@@H](Nc3ncc(Br)cn3)C2)cc1O[C@@H]1CCN(C)C1 [Example 163, N-(4-((R)-3-((5-bromopyrimidin-2-yl)amino)pyrrolidine-1-carbonyl)-2-(((R)-1-methylpyrrolidin-3-yl)oxy)phenyl)acrylamide] | < 100 |
| C=CC(=O)Nc1ccc(C(=O)N2CC[C@@H](Nc3ncc(Br)cn3)C2)cc1O[C@H]1CCN(C)C1 [Example 164, N-(4-((R)-3-((5-bromopyrimidin-2-yl)amino)pyrrolidine-1-carbonyl)-2-(((S)-1-methylpyrrolidin-3-yl)oxy)phenyl)acrylamide] | < 100 |
| C=CC(=O)Nc1ccc(C(=O)N2CC[C@@H](Nc3ncc(C#N)c(OC)n3)C2)cc1OCCN(C)C [Example 165, (R)—N-(4-(3-((5-cyano-4-methoxypyrimidin-2-yl)amino)pyrrolidine-1-carbonyl)-2-(2-(dimethylamino)ethoxy)phenyl)acrylamide] | < 100 |
| COc1nc(N[C@@H]2CCN(C(=O)c3ccc(NC(=O)/C=C/CN4CC[C@@H](F)C4)cc3)C2)ncc1Cl [Example 167, (E)-N-(4-((R)-3-((5-chloro-4-methoxypyrimidin-2-yl)amino)pyrrolidine-1-carbonyl)phenyl)-4-((R)-3-fluoropyrrolidin-1-yl)but-2-enamide] | < 100 |
| COc1nc(N[C@@H]2CCN(C(=O)c3ccc(NC(=O)/C=C/CN4CCOCC4)cc3)C2)ncc1Cl [Example 168, (R,E)-N-(4-(3-((5-chloro-4-methoxypyrimidin-2-yl)amino)pyrrolidine-1-carbonyl)phenyl)-4-morpholinobut-2-enamide] | 100 to 1000 |
| COc1nc(N[C@@H]2CCN(C(=O)c3ccc(NC(=O)/C=C/CN4CC[C@H](F)C4)cc3)C2)ncc1Cl [Example 169, (E)-N-(4-((R)-3-((5-chloro-4-methoxypyrimidin-2-yl)amino)pyrrolidine-1-carbonyl)phenyl)-4-((S)-3-fluoropyrrolidin-1-yl)but-2-enamide] | < 100 |
| COc1nc(N[C@@H]2CCN(C(=O)c3ccc(NC(=O)/C=C/CN4CCCC(F)(F)C4)cn3)C2)ncc1Cl [Example 172, (R,E)-N-(6-(3-((5-chloro-4-methoxypyrimidin-2-yl)amino)pyrrolidine-1-carbonyl)pyridin-3-yl)-4-(3,3-difluoropiperidin-1-yl)but-2-enamide] | 100 to 1000 |
| COc1nc(N[C@@H]2CCN(C(=O)c3ccc(NC(=O)/C=C/CN4CCOCC4)cn3)C2)ncc1Cl [Example 174, (R,E)-N-(6-(3-((5-chloro-4-methoxypyrimidin-2-yl)amino)pyrrolidine-1-carbonyl)pyridin-3-yl)-4-morpholinobut-2-enamide] | 100 to 1000 |
